Results published in US20260262643A1, “HERBICIDAL BENZOXAZINES” (FMC CORPORATION, priority 2022, published 2026).

Assays:
barnyardgrass [1] = assay: Test C preemergence; format: in vivo, Echinochloa crusgalli; details: 0 to 100 scale (0 no effect, 100 complete control); for Plant response rating, Barnyardgrass: Preemergence, visual rating after 10 days
Summary of the method: (§1)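 Seeds in loam–sand blend received preemergence directed soil spray of test chemicals in non-phytotoxic solvent with surfactant; postemergence treatment was applied at one- to two-leaf stage (2–10 cm). After 10 days in greenhouse, injury rated visually versus untreated controls, 0 (no effect) to 100 (complete control).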

blackgrass [2] = assay: Test C preemergence; format: in vivo, Alopecurus myosuroides; details: 0 to 100 scale (0 no effect, 100 complete control); for Plant response rating, Blackgrass: Preemergence, visual rating after 10 days
Summary of the method: as §1

green foxtail [3] = assay: Test C preemergence; format: in vivo, Setaria viridis; details: 0 to 100 scale (0 no effect, 100 complete control); for Plant response rating, Foxtail, Green: Preemergence, visual rating after 10 days
Summary of the method: as §1

kochia [4] = assay: Test C preemergence; format: in vivo, Bassia scoparia; details: 0 to 100 scale (0 no effect, 100 complete control); for Plant response rating, Kochia: Preemergence, visual rating after 10 days
Summary of the method: as §1

pigweed, palmer [5] = assay: Test C preemergence; format: in vivo, Amaranthus palmeri; details: 0 to 100 scale (0 no effect, 100 complete control); for Plant response rating, Pigweed, Palmer: Preemergence, visual rating after 10 days
Summary of the method: as §1

ragweed [6] = assay: Test C preemergence; format: in vivo, Ambrosia artemisiifolia; details: 0 to 100 scale (0 no effect, 100 complete control); for Plant response rating, Ragweed: Preemergence, visual rating after 10 days
Summary of the method: as §1

ryegrass, Italian [7] = assay: Test C preemergence; format: in vivo, Lolium multiflorum; details: 0 to 100 scale (0 no effect, 100 complete control); for Plant response rating, Ryegrass, Italian: Preemergence, visual rating after 10 days
Summary of the method: as §1

barnyardgrass [8] = assay: Test C postemergence; format: in vivo, Echinochloa crusgalli; details: 10 days
Summary of the method: as §1

blackgrass [9] = assay: Test C postemergence; format: in vivo, Alopecurus myosuroides; details: 10 days
Summary of the method: as §1

green foxtail [10] = assay: Test C postemergence; format: in vivo, Setaria viridis; details: Postemergence, 1000 g ai/ha, 10 days, visual 0 to 100 scale (0 no effect, 100 complete control)
Summary of the method: as §1

kochia [11] = assay: Test C postemergence; format: in vivo, Bassia scoparia; details: 10 days
Summary of the method: as §1

pigweed, palmer [12] = assay: Test C postemergence; format: in vivo, Amaranthus palmeri; details: 10 days
Summary of the method: as §1

ragweed [13] = assay: Test C postemergence; format: in vivo, Ambrosia artemisiifolia; details: 10 days
Summary of the method: as §1

ryegrass, Italian [14] = assay: Test C postemergence; format: in vivo, Lolium multiflorum; details: 10 days
Summary of the method: as §1

galium = assay: Test C postemergence; format: in vivo, Galium aparine; details: 10 days
Summary of the method: as §1

horseweed = assay: Test C postemergence; format: in vivo, Erigeron canadensis; details: 10 days
Summary of the method: as §1

barnyardgrass [15] = assay: Test D flooded paddy test; format: in vivo, Echinochloa crus-galli; details: 250 g ai/ha, applied to paddy water, visual rating after 13 to 14 days, scale 0 to 100 (0 no effect, 100 complete control)
Procedure: (§2) Plant species in the flooded paddy test selected from barnyardgrass (Echinochloa crus-galli), ducksalad (Heteranthera limosa), rice (Oryza sativa), and sedge, umbrella (small-flower umbrella sedge, Cyperus difformis) were grown to the 2-leaf stage for testing. At time of treatment, test pots were flooded to 3 cm above the soil surface, treated by application of test compounds directly to the paddy water, and then maintained at that water depth for the duration of the test. Treated plants and controls were maintained in a greenhouse for 13 to 14 days, after which time all species were compared to controls and visually evaluated. Plant response ratings, summarized in Table D, are based on a scale of 0 to 100 where 0 is no effect and 100 is complete control. A dash (-) response means no test result.

ducksalad = assay: Test D flooded paddy test; format: in vivo, Heteranthera limosa; details: 250 g ai/ha, applied to paddy water, visual rating after 13 to 14 days, scale 0 to 100 (0 no effect, 100 complete control)
Procedure: as §2

rice = assay: Test D flooded paddy test; format: in vivo, Oryza sativa; details: 250 g ai/ha, applied to paddy water, visual rating after 13 to 14 days, scale 0 to 100 (0 no effect, 100 complete control)
Procedure: as §2

sedge, umbrella = assay: Test D flooded paddy test; format: in vivo, Cyperus difformis; details: 250 g ai/ha, applied to paddy water, visual rating after 13 to 14 days, scale 0 to 100 (0 no effect, 100 complete control)
Procedure: as §2

corn [16] = assay: Test C preemergence; format: in vivo, Zea mays; details: 0 to 100 scale (0 no effect, 100 complete control)
Summary of the method: as §1

oat, wild [17] = assay: Test C preemergence; format: in vivo, Avena fatua; details: 0 to 100 scale (0 no effect, 100 complete control)
Summary of the method: as §1

soybean [18] = assay: Test C preemergence; format: in vivo, Glycine max; details: 0 to 100 scale (0 no effect, 100 complete control)
Summary of the method: as §1

wheat [19] = assay: Test C preemergence; format: in vivo, Triticum aestivum; details: 0 to 100 scale (0 no effect, 100 complete control)
Summary of the method: as §1

corn [20] = assay: Test C postemergence; format: in vivo, Zea mays; details: 10 days
Summary of the method: as §1

oat, wild [21] = assay: Test C postemergence; format: in vivo, Avena fatua; details: 10 days
Summary of the method: as §1

soybean [22] = assay: Test C postemergence; format: in vivo, Glycine max; details: 10 days
Summary of the method: as §1

wheat [23] = assay: Test C postemergence; format: in vivo, Triticum aestivum; details: 10 days
Summary of the method: as §1

[24] = Postemergence, 1000 g ai/ha, visual 0 to 100 scale (0 no effect, 100 complete control)
[25] = Test C, preemergence, 125 g ai/ha
[26] = Preemergence, 500 g ai/ha, visual rating after 10 days
[27] = 125 g ai/ha, postemergence, 0 to 100 scale, 0 no effect, 100 complete control
[28] = Postemergence, 500 g ai/ha, visual 0 to 100 scale (0 no effect, 100 complete control)

Cc1ncc(-c2cccc(C(=O)N3C[C@H](C)Oc4c(Cl)cccc43)c2)s1 [Compound 296]
Plant response rating, Barnyardgrass (barnyardgrass [1]; 1000 g ai/ha): 100
Plant response rating, Blackgrass (blackgrass [2]; 1000 g ai/ha): 50
Plant response rating, Foxtail, Green (green foxtail [3]; 1000 g ai/ha): 100
Plant response rating, Kochia (kochia [4]; 1000 g ai/ha): 90
Plant response rating, Pigweed, Palmer (pigweed, palmer [5]; 1000 g ai/ha): 100
Plant response rating, Ragweed (ragweed [6]; 1000 g ai/ha): 70
Plant response rating, Ryegrass, Italian (ryegrass, Italian [7]; 1000 g ai/ha): 80
Plant response rating, Barnyardgrass (barnyardgrass [8]; [24]): 50
Plant response rating, Blackgrass (blackgrass [9]; [24]): 80
Plant response rating, Foxtail, Green (green foxtail [10]): 80
Plant response rating, Kochia (kochia [11]; [24]): 90
Plant response rating, Pigweed, Palmer (pigweed, palmer [12]; [24]): 90
Plant response rating, Ragweed (ragweed [13]; [24]): 80
Plant response rating, Ryegrass, Italian (ryegrass, Italian [14]; [24]): 30
Plant response rating, Galium (galium; [24]): 100
Plant response rating, Horseweed (horseweed; [24]): 60
Plant response rating, Barnyardgrass (Flood) (barnyardgrass [15]): 0
Plant response rating, Ducksalad (Flood) (ducksalad): 0
Plant response rating, Rice (Flood) (rice): 0
Plant response rating, Sedge, Umbrella (Flood) (sedge, umbrella): 0

COC[C@H]1CN(C(=O)c2cc(-n3cnc(C4CCC4)n3)ccc2OC)c2cccc(Cl)c2O1 [Compound 236]
Plant response rating, Barnyardgrass (barnyardgrass [1]; 500 g ai/ha): 80
Barnyardgrass plant response rating (barnyardgrass [1]; [25]): 20
Plant response rating, Blackgrass (blackgrass [2]; 500 g ai/ha): 10
Blackgrass plant response rating (blackgrass [2]; [25]): 0
Plant response rating, Corn (corn [16]; [26]): 0
Corn plant response rating (corn [16]; [25]): 0
Plant response rating, Foxtail, Green (green foxtail [3]; 500 g ai/ha): 100
Foxtail, Green plant response rating (green foxtail [3]; [25]): 90
Plant response rating, Kochia (kochia [4]; 500 g ai/ha): 90
Kochia plant response rating (kochia [4]; [25]): 40
Plant response rating, Oat, Wild (oat, wild [17]; [26]): 30
Oat, Wild plant response rating (oat, wild [17]; [25]): 10
Plant response rating, Pigweed, Palmer (pigweed, palmer [5]; 500 g ai/ha): 100
Pigweed, Palmer plant response rating (pigweed, palmer [5]; [25]): 80
Plant response rating, Ragweed (ragweed [6]; 500 g ai/ha): 80
Ragweed plant response rating (ragweed [6]; [25]): 20
Plant response rating, Ryegrass, Italian (ryegrass, Italian [7]; 500 g ai/ha): 50
Ryegrass, Italian plant response rating (ryegrass, Italian [7]; [25]): 50
Plant response rating, Soybean (soybean [18]; [26]): 70
Soybean plant response rating (soybean [18]; [25]): 40
Plant response rating, Wheat (wheat [19]; [26]): 10
Wheat plant response rating (wheat [19]; [25]): 0
Plant response rating, Barnyardgrass (barnyardgrass [8]; [27]): 40
Plant response rating, Barnyardgrass (barnyardgrass [8]; [28]): 90
Plant response rating, Blackgrass (blackgrass [9]; [27]): 20
Plant response rating, Blackgrass (blackgrass [9]; [28]): 90
Plant response rating, Corn (corn [20]; [27]): 30
Plant response rating, Corn (corn [20]; [28]): 80
Plant response rating, Kochia (kochia [11]; [27]): 90
Plant response rating, Kochia (kochia [11]; [28]): 90
Plant response rating, Oat, Wild (oat, wild [21]; [27]): 10
Plant response rating, Oat, Wild (oat, wild [21]; [28]): 40
Plant response rating, Pigweed, Palmer (pigweed, palmer [12]; [27]): 90
Plant response rating, Pigweed, Palmer (pigweed, palmer [12]; [28]): 90
Plant response rating, Ragweed (ragweed [13]; [27]): 80
Plant response rating, Ragweed (ragweed [13]; [28]): 90
Plant response rating, Ryegrass, Italian (ryegrass, Italian [14]; [27]): 60
Plant response rating, Ryegrass, Italian (ryegrass, Italian [14]; [28]): 90
Plant response rating, Soybean (soybean [22]; [27]): 100
Plant response rating, Soybean (soybean [22]; [28]): 100
Plant response rating, Wheat (wheat [23]; [27]): 20
Plant response rating, Wheat (wheat [23]; [28]): 30
Plant response rating, Galium (galium; [27]): 100
Plant response rating, Galium (galium; [28]): 100
Plant response rating, Horseweed (horseweed; [27]): 70
Plant response rating, Horseweed (horseweed; [28]): 70
Plant response rating, Barnyardgrass (Flood) (barnyardgrass [15]): 0
Plant response rating, Ducksalad (Flood) (ducksalad): 75
Plant response rating, Rice (Flood) (rice): 0
Plant response rating, Sedge, Umbrella (Flood) (sedge, umbrella): 95
